Experiments:
paw edema = assay: Anti-inflammatory activity (% inhibition in paw edema); type: in vivo; details: dose 40 mg/kg p.o.; albino rats
Source text: (§1) Solvents were dried and distilled before use. Dimethyltin(IV) dichloride di-n-butyltin(IV) dichloride, diphenyltin(IV) dichloride, trimethyltin(IV) chloride, tri-i-propyltin(IV) chloride, tri-n-butyltin(IV) chloride, triphenyltin(IV) chloride (E. Merck), di-n-octyltin(IV) oxide (Aldrich), and disodium salt of 5′-guanosine monophosphate (Na2(5′-GMP) (Sigma) were used as received. The elemental analysis, namely, melting points, carbon, hydrogen, nitrogen, and tin of the synthesized compounds was determined on the same instruments as reported earlier. Infrared and far-infrared spectra were recorded on a Perkin-Elmer 1600 series FT IR spectrophotometer in the range 4000–400 cm^−1 from KBr discs and 600–200 cm^−1 from CsI discs. ^1H and ^13C spectra were recorded on a Bruker DRX 300 (300 MHz FT NMR) spectrometer at the Central Drug Research Institute, Lucknow, India, using CD3OD as solvent and TMS as the internal standard. ^119Sn NMR spectra were recorded on a Bruker DRX 500 (500 MHz FT NMR) spectrometer at the Institute Instrumentation Centre, IIT, Roorkee, India, using DMSO-d6/CD3OD as solvent and TMS as the internal standard. ^119Sn Mössbauer spectra were recorded on Mössbauer spectrometer model MS-900 according to the procedure reported previously at the Department of Chemistry and Physics, University of The District of Columbia, Washington, DC, USA [21, 22]. Toxicity (LD50: average lethal dose at 50% survival) and anti-inflammatory activity of the studied derivatives were determined according to the procedures reported earlier.

[1] = Solubility in organic solvents (observation); type: physicochemical; details: for Solubility in DMSO-d6/CDCl3/CD3OD: NMR solvents DMSO-d6/CDCl3/CD3OD
Source text: All of the synthesized compounds are obtained as white or cream solid in 65–81% yield and stable towards air and moisture. They are insoluble in common organic solvents but sparingly soluble in DMSO. They decomposed at high temperature instead of melting, which indicates their polymeric nature. […] In the entire studied derivatives one molecule of water is also involved.
The chemical shifts of various magnetically nonequivalent carbons of (5′-GMP)^2− have been assigned in the studied derivatives. The C-5′ resonances in organotin(IV) derivatives of (5′-GMP)^2− are shifted towards downfield upon complexation as compared with that of ligand, which indicate the involvement of phosphate group (PO3)^2− in bonding with tin. While all other carbon shifts remains almost unchanged, the ^13C chemical shifts of alkyl and phenyl groups attached to tin are also observed in the expected regions which are consistent with previously reported values. The characteristic resonances in the ^119Sn NMR spectra of some of the studied derivatives, recorded in dimethylsulfoxide-d 6, are also presented in Table 2. […] The ^119Sn chemical shifts in iso-Pr3Sn(IV), Ph2Sn(IV), and Ph3Sn(IV) derivatives of (5′-GMP)^2− are observed at δ −256, −225, and −226 ppm, which are characteristic of the five-coordinated organotin(IV) derivatives.

albino rats = type: in vivo; details: p.o.
Source text: as §1

Row | Molecule | Anti-inflammatory activity % inhibition (paw edema) (paw edema) [%] | Solubility in DMSO-d6 [1] | Solubility in DMSO-d6/CDCl3/CD3OD [1] | Toxicity LD50 (albino rats) [mg/kg]
1 | CCCCC1C(=O)N(c2ccccc2)N(c2ccccc2)C1=O [Phenyl butazone, reference compound] | 34.56 |  |  | 
2 | [(Me3Sn)2(5′-GMP)·H2O]n |  | poor solubility | extremely low solubility | 
3 | [(Ph3Sn)2(5′-GMP)·H2O]n | 20.63 |  |  | >400
4 | [(i-Pr3Sn)2(5′-GMP)·H2O]n |  |  |  | >400
5 | [(n-Bu3Sn)2(5′-GMP)·H2O]n | 17.34 | poor solubility |  | >400
6 | [Me2Sn(5′-GMP)·H2O]n | 18.12 | poor solubility |  | >400
7 | [Ph2Sn(5′-GMP)·H2O]n | 19.22 |  |  | >400
8 | [n-Bu2Sn(5′-GMP)·H2O]n | 16.32 | poor solubility | extremely low solubility | >400
